Experimental data from patent US11478466B2, “Small molecule promoting osteoblast differentiation” (Cornell University, priority 2019, dated 2022).
Like-named read-outs stand apart in the source and are kept apart here.

Assays:
[1] = system: alkaline phosphatase (ALP); assay: cells; settings: Mus musculus; for activation at 10 µM: C2C12, 96 h
Description: (§1) To identify small-molecule activators of osteoblast differentiation, we measured ALP activity using a fluorescent emission assay as a reporter for enzymatic digestion of ALP substrate in lysates derived from C2C12 myoblasts. […] Therefore, before screening, the assay was calibrated using recombinant human BMP4 protein as a positive control. Compounds were robotically deposited onto 384-well plates and then overlaid by C2C12 cells for a 4-day culture period, followed by lysis and fluorescent substrate assays (FIG. 1A; Table 1). To ensure uniformity, C2C12 cells were maintained in normal culture medium containing 10% fetal bovine serum, and lysis and substrate addition achieved using a microplate multidrop device. The primary screen (Table 2) encompassed greater than 47,000 small molecules tested at a final concentration of 10 μM.
(§2) For the primary screen, library compounds were distributed onto 384-well microplates (Greiner Bio-One 781091) at a final concentration of 10 μM in culture medium using a Perkin Elmer Janus automated workstation and WinPrep Version 4.8.3.315. Positive (rhBMP4, 1 ng/ml, R&D Systems) and negative controls (DMSO, 0.2%) were manually added to each plate by multichannel pipet. C2C12 cells were seeded onto compounds and controls at a density of 2000/well using a Thermo Multidrop Combi reagent dispenser and cultured for 4 days at 37° C., 5% CO2. Culture medium was aspirated using a BioTek EL406 plate washer and cells were lysed in RIPA buffer (Millipore 20-188) at ambient temperature for 10 minutes. 10 μl fluorescent alkaline phosphatase substrate (AttoPhos, Promega S1000) was added to lysates and incubated an additional 10 minutes before measuring the fluorescence (Excitation 450 nm/Emission 580 nm) on a BioTek Synergy Neo2 stacking microplate reader. Plates were processed and relative fluorescence raw values measured in stacks of 10-20. The data were processed using Collaborative Drug Discovery web-based software (CDD Vault) to determine Z score calculated on DMSO control wells and percent activation normalized against positive and negative controls (NPA). Cherry-picked hit candidates were re-tested in concentration response experiments, from which 4 candidates were chosen and purchased for further testing from either ChemBridge or Enamine, based on availability.
(§3) We also purchased a library of 154 structural chemical analogs assembled by ChemBridge Corp. from available screening library compounds.

[2] = system: alkaline phosphatase (ALP); settings: for RFU Score (10 μM): 154-analog library, C2C12, duplicate; for RFU Score Threshold ≥ 800 / Fluorescence Z Score Threshold ≥ 10 / NPA Score Threshold ≥ 5.0 (normalized percent activation): primary screen, C2C12, 4 days; for RFU Score (10 μM) / RFU Score Threshold ≥ 800 / Fluorescence Z Score Threshold ≥ 10 / NPA Score Threshold ≥ 5.0 (normalized percent activation): 10 μM; for RFU Score Threshold ≥ 800: Ex 450/Em 580 nm, rank in brackets not taken; for Fluorescence Z Score Threshold ≥ 10: Z score on DMSO control wells; for NPA Score Threshold ≥ 5.0 (normalized percent activation): normalized against rhBMP4 positive and DMSO negative controls
Description: as §1, §2, §3

[3] = read-out: NPA Score Threshold ≥ 5.0 (normalized percent activation)

SMILES | activation at 10 µM [1] [%] | RFU Score (10 μM) [2] | further results
c1ccc(-c2nc[nH]c2-c2cccc(CN3CCOCC3)c2)cc1 [RU-0232369] | 0.43 | 294 | 
O=C(c1[nH]cnc1-c1ccccc1)N1CCCC(Nc2ccc(F)cc2)C1 (stereo not drawn) [RU-0236307] | 6.76 | 473 | 
Cc1cc(C)n(CC(C)Nc2nc(-c3ccncc3)nc3c2CNC3)n1 (stereo not drawn) [RU-0236897] |  |  | activation at 10 µM [1, 3]: 5.32%; RFU Score Threshold ≥ 800 [2]: Below Threshold; Fluorescence Z Score Threshold ≥ 10 [2]: Below Threshold
CCc1ncc2c(n1)CN(C(=O)c1[nH]cnc1-c1ccccc1)C2 [RU-0237095] | 6.04 | 453 | 
COc1ccc(-c2n[nH]cc2-c2[nH]cnc2-c2ccccc2)cc1 [RU-0237450] | 6.49 | 466 | 
CCc1cnc(C)nc1N1CCCC(Cc2cccnc2)C1 (stereo not drawn) [RU-0238003, 5-ethyl-2-methyl-4-[3-(pyridin-3-ylmethyl)piperidin-1-yl]pyrimidine] |  |  | EC50 ([1]; C2C12, read-out: Measured EC50): > 40 µM; RFU Score Threshold ≥ 800 [2]: 1340 (3); Fluorescence Z Score Threshold ≥ 10 [2]: 36.44 (3); NPA Score Threshold ≥ 5.0 (normalized percent activation) [2]: Below Threshold
Cc1ccc(-n2cc(CN3CCCC(Cn4ccnc4C)C3)cn2)cc1C (stereo not drawn) [RU-0238394] |  |  | activation at 10 µM [1, 3]: 5.54%; RFU Score Threshold ≥ 800 [2]: 914 (15); Fluorescence Z Score Threshold ≥ 10 [2]: 12.45 (19)
Cc1cc(C)c2[nH]c(=O)c(CN3CCN4CCN(C)CC4C3)cc2c1 (stereo not drawn) [RU-0238998] | 6.62 | 469 | 
COc1cc(OC)c(-c2[nH]cnc2-c2ccccc2)c(OC)c1 [RU-0239439] | 6.72 | 472 | 
Cc1nc2cc(-c3cccc4ccnn34)ccc2s1 [RU-0239646] |  |  | activation at 10 µM [1, 3]: 5.22%; RFU Score Threshold ≥ 800 [2]: Below Threshold; Fluorescence Z Score Threshold ≥ 10 [2]: Below Threshold
CCCC(C)c1nnc(NC(=O)c2ccccc2-n2cncn2)s1 (stereo not drawn) [RU-0242581] |  |  | activation at 10 µM [1, 3]: 5.51%; RFU Score Threshold ≥ 800 [2]: 849 (24); Fluorescence Z Score Threshold ≥ 10 [2]: Below Threshold
CN(C)CCNc1cc(-c2ccc(Cl)cc2F)c2cc[nH]c2n1 [RU-0242925] |  |  | activation at 10 µM [1, 3]: 5.73%; RFU Score Threshold ≥ 800 [2]: Below Threshold; Fluorescence Z Score Threshold ≥ 10 [2]: Below Threshold
Cc1nc2cc(C(=O)N3CCNC(=O)C3)ccc2s1 [RU-0243566] |  |  | activation at 10 µM [1, 3]: 5.55%; RFU Score Threshold ≥ 800 [2]: Below Threshold; Fluorescence Z Score Threshold ≥ 10 [2]: Below Threshold
CN1CC2(CCCN(C(=O)c3[nH]cnc3-c3ccccc3)CC2)OC1=O (stereo not drawn) [RU-0245926] | 9.73 | 558 | 
COc1cccc(-c2[nH]cnc2-c2ccccc2)c1OCCN(C)C [RU-0247047] | 9.73 | 558 | 
C=CCc1cc(-c2[nH]cnc2-c2ccccc2)cc(OC)c1O [RU-0248392] | 4.98 | 423 | 
CN(C)CC1(O)CCN(C(=O)c2[nH]cnc2-c2ccccc2)C1 (stereo not drawn) [RU-0248829] | 1.52 | 325 | 
c1ccc(-c2nc[nH]c2-c2ccccc2OCCCN2CCOCC2)cc1 [RU-0248967] | 7.58 | 512 | 
CN1CCC(Cc2noc(-c3[nH]cnc3-c3ccccc3)n2)CC1 [RU-0249023] | 0.4 | 293 | 
c1ccc(-c2nc[nH]c2-c2ccc(OCCn3ccnc3)cc2)cc1 [RU-0249817] | 9.84 | 561 | 

SMILES | activation at 10 µM [1] [%] | RFU Score (10 μM) [2] | further results
O=C(CCc1n[nH]c2c1CCCC2)N1CCC2(CCCO2)CC1 [RU-0250369] |  |  | activation at 10 µM [1, 3]: 5.46%; RFU Score Threshold ≥ 800 [2]: Below Threshold; Fluorescence Z Score Threshold ≥ 10 [2]: Below Threshold
O=C(NC1CC(=O)N(CCc2ccccc2)C1)c1[nH]cnc1-c1ccccc1 (stereo not drawn) [RU-0252250] | 8.85 | 533 | 
CN1CC2(CCN(C(=O)c3[nH]cnc3-c3ccccc3)C2)OC1=O (stereo not drawn) [RU-0253075] | 7.71 | 500 | 
Cc1cc(C)c2[nH]c(=O)c(-c3nccn3CCc3cn[nH]c3)cc2c1 [RU-0253216] | 2.09 | 341 | 
CCN1CCN(CCOc2ccccc2-c2[nH]cnc2-c2ccccc2)CC1 [RU-0253941] | 9.34 | 547 | 
c1cc2c(cc1NC1CCCNC1)OCCO2 (stereo not drawn) [RU-0256394] |  |  | activation at 10 µM [1, 3]: 5.87%; RFU Score Threshold ≥ 800 [2]: Below Threshold; Fluorescence Z Score Threshold ≥ 10 [2]: Below Threshold
Cc1cc(C)c2[nH]c(=O)c(CN(C)Cc3c(C)noc3C)cc2c1 [RU-0259020] | 8.18 | 514 | 
CN(C)CC1(O)CCCN(S(=O)(=O)c2ccc(-c3ccccc3)cc2)CC1 (stereo not drawn) [RU-0259574] |  |  | activation at 10 µM [1, 3]: 9.87%; RFU Score Threshold ≥ 800 [2]: 903 (16); Fluorescence Z Score Threshold ≥ 10 [2]: Below Threshold
CC(=O)Nc1ccc2nc(-c3[nH]cnc3-c3ccccc3)ccc2c1 [RU-0260066] | 6.14 | 456 | 
O=C(c1[nH]cnc1-c1ccccc1)N1CCOC(c2ccc(Cl)cc2)C1 (stereo not drawn) [RU-0261164] | 9.24 | 544 | 
c1ccc2c(N3CCN(Cc4cc5n(n4)CCCNC5)CC3)nsc2c1 [RU-0261349] |  |  | activation at 10 µM [1, 3]: 5.04%; RFU Score Threshold ≥ 800 [2]: 884 (18); Fluorescence Z Score Threshold ≥ 10 [2]: 11.32 (22)
CCC(c1cccnc1)N(C)Cc1cc2cc(C)cc(C)c2[nH]c1=O (stereo not drawn) [RU-0261450] | 9.03 | 538 | 
O=C(N[C@H]1CC[C@H](n2cnnc2)CC1)c1[nH]cnc1-c1ccccc1 [RU-0261757] | 7.99 | 508 | 
COc1ccc(-c2[nH]nnc2-c2ccccc2)cc1Cn1cncn1 [RU-0262240] | 7.55 | 496 | 
CN1CCC(Cc2noc(CCC(=O)c3ccccc3)n2)CC1 [RU-0262489] |  |  | activation at 10 µM [1, 3]: 5.43%; RFU Score Threshold ≥ 800 [2]: Below Threshold; Fluorescence Z Score Threshold ≥ 10 [2]: Below Threshold
O=C1NCC2(CCCN(C(=O)c3[nH]cnc3-c3ccccc3)C2)O1 (stereo not drawn) [RU-0264094] | 10.6 | 583 | 
COc1cccc(-c2[nH]cnc2-c2ccccc2)c1OCCn1ccnc1 [RU-0265092] | 6.93 | 478 | 
Cc1cc(C)c2[nH]c(=O)c(-c3c(-c4ccccc4)ncn3C3CCNC3)cc2c1 (stereo not drawn) [RU-0266582] |  |  | EC50 ([1]; C2C12): 1.42 µM; Fluo. Z Score ([2]; SAR of library and proprietary analogs, AttoPhos assay, C2C12): 0.48 ± 1.10
Cc1cc(C)c2[nH]c(=O)c(CN3CCOC4(CNCCOC4)C3)cc2c1 (stereo not drawn) [RU-0267267] | 9.71 | 557 | 
C=CCN(Cc1ccc(F)cc1)C(=O)c1c[nH]c2c(C)cccc2c1=O [RU-0268068] |  |  | activation at 10 µM [1, 3]: 5.81%; RFU Score Threshold ≥ 800 [2]: Below Threshold; Fluorescence Z Score Threshold ≥ 10 [2]: Below Threshold

SMILES | activation at 10 µM [1] [%] | RFU Score (10 μM) [2] | further results
O=C(c1[nH]cnc1-c1ccccc1)N1C[C@H](O)[C@@H](N2CCOCC2)C1 [RU-0268325] | 2.04 | 339 | 
CCOC(=O)N1CCC(Nc2ncnc3ccsc23)CC1 [RU-0269711, ethyl 4-(thieno[2,3-e]pyrimidin-4-ylamino)piperidine-1-carboxylate] |  |  | EC50 ([1]; C2C12, read-out: Measured EC50): 28.3 µM; RFU Score Threshold ≥ 800 [2]: 1070 (7); Fluorescence Z Score Threshold ≥ 10 [2]: 14.73 (15); NPA Score Threshold ≥ 5.0 (normalized percent activation) [2]: Below Threshold
CN(C)CC1(O)CCCN(C(=O)c2[nH]cnc2-c2ccccc2)C1 (stereo not drawn) [RU-0424441] | 3.04 | 368 | 
CN1CCN(C(=O)c2[nH]cnc2-c2ccccc2)CC1C(=O)O (stereo not drawn) [RU-0424442] | 0.18 | 287 | 
CCOc1cccc(-c2[nH]cnc2-c2ccccc2)c1OCC(=O)O [RU-0424443] | 0.87 | 306 | 
Cc1cc(C)c2[nH]c(=O)c(CN(C)CCc3scnc3C)cc2c1 [RU-0424444] | 5.79 | 446 | 
Cc1ccc2[nH]c(C(=O)O)c(-c3[nH]cnc3-c3ccccc3)c2c1 [RU-0424445] | 4.67 | 364 | 
O=C(c1[nH]cnc1-c1ccccc1)N1CCc2onc(-c3ccccc3)c2C1 [RU-0424446] | 1.54 | 325 | 
Cc1cc(C)c2[nH]c(=O)c(CN(C)Cc3nc(-c4cccnc4)no3)cc2c1 [RU-0424447] | 0.54 | 297 | 
Cc1cc(C)c2[nH]c(=O)c(CN3C[C@@H](C)O[C@@H](C)C3)cc2c1 [RU-0424448] | -1 | 253 | 
Cc1cc(C)c2[nH]c(=O)c(CN3CCC(c4nncn4C)CC3)cc2c1 [RU-0424449] | 0.1 | 284 | 
Cc1nn(C)c(N2CCOCC2)c1-c1[nH]cnc1-c1ccccc1 [RU-0424450] | 0.24 | 288 | 
Cc1cc(C)c2[nH]c(=O)c(CN(Cc3nccn3C)C3CC3)cc2c1 [RU-0424451] | 0.82 | 305 | 
Cc1cc(C)c2[nH]c(=O)c(CN3CCC(CN)C3)cc2c1 (stereo not drawn) [RU-0424452] | 1.65 | 328 | 
O=C(c1[nH]cnc1-c1ccccc1)N1CC(c2cccnc2)C1 [RU-0424453] | 1.46 | 323 | 
O=C(c1[nH]cnc1-c1ccccc1)N1CCN2C(=O)OCC2C1 (stereo not drawn) [RU-0424454] | 1.83 | 333 | 
O=C(c1[nH]cnc1-c1ccccc1)N1CCc2[nH]nc(-c3ccccc3)c2C1 [RU-0424455] | 2.3 | 347 | 
Cc1cc(C)c2[nH]c(=O)c(CN3CCC(Oc4ncccn4)CC3)cc2c1 [RU-0424456] | 0.99 | 310 | 
